The test system of assay [1] is Escherichia coli. Put plainly: Antimicrobial activity against Escherichia coli assessed as diameter of inhibition zone at 5.0 mg/ml incubated for 12 hrs by agar disk diffusion method. In kind it is functional. In general terms: Agar diffusion results depend on both activity and mobility in agar.
The subject of assay [2] is Staphylococcus aureus. Briefly: Antimicrobial activity against Staphylococcus aureus assessed as diameter of inhibition zone at 1.2 mg/ml incubated for 12 hrs by agar disk diffusion method. In kind it is functional.
The test system of assay [3] is Bacillus cereus. Put plainly: Antimicrobial activity against Bacillus cereus assessed as diameter of inhibition zone at 1.2 mg/ml incubated for 12 hrs by agar disk diffusion method. The format is functional.
Assay [4] concerns Pseudomonas aeruginosa. Briefly: Antimicrobial activity against Pseudomonas aeruginosa assessed as diameter of inhibition zone at 1.2 mg/ml incubated for 12 hrs by agar disk diffusion method. In kind it is functional.
Assay [5] has as its system Pseudomonas aeruginosa. Briefly: Antibacterial activity against Pseudomonas aeruginosa ATCC 27853 assessed as diameter of inhibition zone incubated for 24 hrs by disc diffusion assay. The format is functional.
Assay [6] deals with Escherichia coli. Briefly: Antibacterial activity against Escherichia coli ATCC 25922 assessed as inhibition of bacterial growth incubated for 24 hrs by broth macrodilution method. The format is functional.
Assay [7] relates to Bacillus cereus. Briefly: Antimicrobial activity against Bacillus cereus assessed as diameter of inhibition zone at 2.5 mg/ml incubated for 12 hrs by agar disk diffusion method. The format is functional.
The test system of assay [8] is Escherichia coli. Briefly: Antibacterial activity against Escherichia coli ATCC 25922 assessed as diameter of inhibition zone incubated for 24 hrs by disc diffusion assay. The format is functional.
For assay [9], the system named is Bacillus cereus. Put plainly: Antimicrobial activity against Bacillus cereus assessed as diameter of inhibition zone at 5.0 mg/ml incubated for 12 hrs by agar disk diffusion method. The format is functional.
In assay [10] the test system is Staphylococcus aureus. Put plainly: Antimicrobial activity against Staphylococcus aureus assessed as diameter of inhibition zone at 5.0 mg/ml incubated for 12 hrs by agar disk diffusion method. The format is functional.
Assay [11] deals with Escherichia coli. Put plainly: Antimicrobial activity against Escherichia coli assessed as diameter of inhibition zone at 2.5 mg/ml incubated for 12 hrs by agar disk diffusion method. In kind it is functional.
The subject of assay [12] is Pseudomonas aeruginosa. Briefly: Antimicrobial activity against Pseudomonas aeruginosa assessed as diameter of inhibition zone at 5.0 mg/ml incubated for 12 hrs by agar disk diffusion method. In kind it is functional.
Assay [13] relates to Pseudomonas aeruginosa. Briefly: Antibacterial activity against Pseudomonas aeruginosa ATCC 27853 assessed as inhibition of bacterial growth incubated for 24 hrs by broth macrodilution method. The format is functional.
Assay [14] deals with Escherichia coli. Put plainly: Antimicrobial activity against Escherichia coli assessed as diameter of inhibition zone at 1.2 mg/ml incubated for 12 hrs by agar disk diffusion method. In kind it is functional.
The test system of assay [15] is Staphylococcus aureus. Briefly: Antimicrobial activity against Staphylococcus aureus assessed as diameter of inhibition zone at 2.5 mg/ml incubated for 12 hrs by agar disk diffusion method. In kind it is functional.
Assay [16] concerns Pseudomonas aeruginosa. Put plainly: Antimicrobial activity against Pseudomonas aeruginosa assessed as diameter of inhibition zone at 2.5 mg/ml incubated for 12 hrs by agar disk diffusion method. In kind it is functional.
Another assay deals with HCT-116. Put plainly: cells. As to conditions: Homo sapiens.
A further assay deals with HepG2. Briefly: Anticancer activity against human HepG2 cells assessed as reduction in cell viability. In kind it is functional, cell-based.
A further assay relates to PC-3. Briefly: Anticancer activity against human PC-3 cells assessed as reduction in cell viability. In kind it is functional, cell-based.
Assay [17] can be described thus: Antioxidant activity assessed as DPPH radical scavenging activity at 100 ug/ml incubated for 30 mins by spectrophotometric analysis. The format is functional. The conditions noted are these: dose 100.0 µg/ml. (Loss of DPPH colour is used to gauge radical scavenging.)
Assay [18] in a line: Antioxidant activity assessed as DPPH radical scavenging activity at 75 ug/ml incubated for 30 mins by spectrophotometric analysis. The format is functional. As to conditions: dose 75.0 µg/ml.
A short description of assay [19]: Antioxidant activity assessed as DPPH radical scavenging activity at 50 ug/ml incubated for 30 mins by spectrophotometric analysis. In kind it is functional. As to conditions: dose 50.0 µg/ml.
Assay [20] has as its target Hydroxycarboxylic acid receptor 2 (Homo sapiens, UniProt Q8TDS4). Briefly: Agonist activity at human HCA2 expressed in human Flp-In-293 cells assessed as inhibition of forskolin-stimulated cAMP accumulation at 50 uM incubated for 30 mins by Lance cAMP assay. In kind it is cell-based. As to conditions: filed as agonist.
Assay [21] is described as follows: Antioxidant activity assessed as DPPH radical scavenging activity at 25 ug/ml incubated for 30 mins by spectrophotometric analysis. In kind it is functional. The conditions noted are these: dose 25.0 µg/ml.
For assay [22], the system named is Escherichia coli. Put plainly: Antimicrobial activity against Escherichia coli assessed as diameter of inhibition zone by agar well diffusion method. In kind it is functional.
For assay [23], the system named is Bacillus subtilis. Put plainly: Antimicrobial activity against Bacillus subtilis assessed as diameter of inhibition zone by agar well diffusion method. The format is functional.
Assay [24] deals with Aspergillus niger. Put plainly: Antifungal activity against Aspergillus niger ATCC 6275 assessed as inhibition of […] growth incubated for 7 days by broth macrodilution method. The format is functional. As to conditions: ATCC 6275, 168 h, time 7 day.
The test system of assay [25] is Aspergillus niger. Put plainly: Antifungal activity against Aspergillus niger ATCC 6275 assessed as diameter of inhibition zone incubated for 7 days by disc diffusion assay. The conditions noted are these: time 7 day. In kind it is functional.
A further assay relates to MCF7. Put plainly: Anticancer activity against human MCF7 cells assessed as reduction in cell viability. In kind it is functional, cell-based.
Assay [26] deals with Staphylococcus aureus. Briefly: Antibacterial activity against Staphylococcus aureus ATCC 25923 assessed as inhibition of bacterial growth incubated for 24 hrs by broth macrodilution method. The format is functional.
Assay [27] concerns Staphylococcus aureus. Put plainly: Antibacterial activity against Staphylococcus aureus ATCC 25923 assessed as diameter of inhibition zone incubated for 24 hrs by disc diffusion assay. In kind it is functional.
Assay [28] deals with Bacillus subtilis. Briefly: Antibacterial activity against Bacillus subtilis ATCC 6633 assessed as diameter of inhibition zone incubated for 24 hrs by disc diffusion assay. The format is functional.
Assay [29] deals with Bacillus subtilis. Put plainly: Antibacterial activity against Bacillus subtilis ATCC 6633 assessed as inhibition of bacterial growth incubated for 24 hrs by broth macrodilution method. In kind it is functional.

Converted amounts (≈) assume the structure as drawn.

Sequence of Hydroxycarboxylic acid receptor 2 (Q8TDS4 whole entry): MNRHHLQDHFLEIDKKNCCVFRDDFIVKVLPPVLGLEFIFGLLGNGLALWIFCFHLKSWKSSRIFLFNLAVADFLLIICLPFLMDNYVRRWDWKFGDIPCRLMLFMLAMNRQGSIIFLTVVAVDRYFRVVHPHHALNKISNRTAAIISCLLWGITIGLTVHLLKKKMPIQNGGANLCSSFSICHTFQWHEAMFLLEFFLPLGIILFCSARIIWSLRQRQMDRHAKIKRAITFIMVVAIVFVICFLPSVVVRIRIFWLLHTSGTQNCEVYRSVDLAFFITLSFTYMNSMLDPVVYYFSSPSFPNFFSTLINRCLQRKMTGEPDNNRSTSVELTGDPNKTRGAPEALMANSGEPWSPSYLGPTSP

The MIC is the least concentration at which growth counts as inhibited. With GENTAMICIN, the inhibition zone (IZ) amounted to 18 mm with Escherichia coli [1]; 11 mm in the assay with Staphylococcus aureus [2]; 11 mm with Bacillus cereus [3]; 11 mm in the assay on Pseudomonas aeruginosa [4]; 17.3 mm in the assay on Pseudomonas aeruginosa [5]; 14 mm in the assay with Bacillus cereus [7]. Also, the inhibition zone (IZ) is 21.3 mm with Escherichia coli [8]; 18 mm with Bacillus cereus [9]; 18 mm in the assay on Staphylococcus aureus [10]; 14 mm with Escherichia coli [11]; 18 mm in the assay on Pseudomonas aeruginosa [12]; 11 mm in the assay with Escherichia coli [14]. The inhibition zone (IZ) in the assay on Staphylococcus aureus [15] and in the assay on Pseudomonas aeruginosa [16] was 14 mm in each case. Also, the MIC is 3.68 µg/mL in the assay on Escherichia coli [6] and 15.4 µg/mL with Pseudomonas aeruginosa [13].
The term IC50 denotes the midpoint of a concentration-inhibition curve. `CC(=O)C1=C(C)Oc2[nH]c(=O)[nH]c(=O)c2C1c1cccc([N+](=O)[O-])c1` (stereo not drawn): the IC50 stood at 7.65 µg/mL in the assay with HCT-116, 5.21 µg/mL in the assay with HepG2 and 4.8 µg/mL (≈ 14 µM) in the assay with PC-3.
As to `O=c1c(C2c3c(-c4ccccc4)n[nH]c3Oc3[nH]c(=S)[nH]c(=S)c32)coc2ccccc12` (stereo not drawn), the values for the Activity in [17], in assay [18] and in assay [19] were 86.4%, 84.3% and 66.5%, respectively.
The Emax is the maximal effect, on the per cent scale that the assay sets. As for `O=C(CSc1nc(=O)c2c(CCCCCl)cc(=O)oc2[nH]1)Oc1ccccc1`, the Emax in assay [20] amounted to 85%.
For `O=c1c(C2c3c(-c4ccccc4)n[nH]c3Oc3[nH]c(=S)n(-c4ccccc4)c(=S)c32)coc2ccccc12` (stereo not drawn), the figures for the Activity in assay [19] and in assay [21] were 66.4% and 61.6%, respectively.
Consider `CC(C)c1ccc(C2C(C#N)=C(N)Oc3[nH]c(=O)[nH]c(=O)c32)cc1` (stereo not drawn), for which the “diameter of the inhibition zone (DIZ)” value in the assay with Escherichia coli [22] is 10.8 mm; with Bacillus subtilis [23] it was 13 mm.
As to `COc1ccc(C2C(C#N)=C(N)Oc3[nH]c(=S)[nH]c(=O)c32)cc1` (stereo not drawn), the zone of inhibition at 5000 µg/mL was 30 mm with Escherichia coli [1] (read-out: DIZ), 22 mm in the assay with Bacillus cereus [9] (read-out: DIZ), 20 mm in the assay with Staphylococcus aureus [10] (read-out: DIZ) and 30 mm with Pseudomonas aeruginosa [12] (read-out: DIZ). Moreover, the zone of inhibition at 1200 µg/mL in the assay with Staphylococcus aureus [2] (read-out: DIZ) was determined as 12 mm; in the assay on Bacillus cereus [3] (read-out: DIZ) it was 14 mm; in the assay with Pseudomonas aeruginosa [4] (read-out: DIZ) it was 12 mm; with Escherichia coli [14] (read-out: DIZ), 14 mm. Further, the zone of inhibition at 2500 µg/mL worked out at 18 mm with Bacillus cereus [7] (read-out: DIZ), 20 mm in the assay with Escherichia coli [11] (read-out: DIZ), 16 mm in the assay with Staphylococcus aureus [15] (read-out: DIZ) and 17 mm in the assay on Pseudomonas aeruginosa [16] (read-out: DIZ).
In the case of `C[C@@H]1[C@H](O)[C@@H](C)/C=C/C=C/C=C/C=C/C=C/C=C/C=C/[C@H](O[C@@H]2O[C@H](C)[C@@H](O)[C@H](N)[C@@H]2O)C[C@@H]2O[C@](O)(C[C@@H](O)C[C@@H](O)[C@H](O)CC[C@@H](O)C[C@@H](O)CC(=O)O[C@H]1C)C[C@H](O)[C@H]2C(=O)O` [AMPHOTERICIN B], the MIC in the assay on Aspergillus niger [24] worked out at 0.781 µg/mL (≈ 0.845 µM). In addition, the “diameter of the inhibition zone (DIZ)” value in the assay with Aspergillus niger [25] amounted to 26.3 mm.
For the compound `COc1ccc(C2c3c([nH]c(=O)[nH]c3=O)Oc3ncn(C(N)=O)c(=N)c32)cc1` (stereo not drawn), the IC50 in the assay with HCT-116 came out at 2610 nM; with MCF7, 2430 nM; in the assay with HepG2, 2090 nM. Moreover, the MIC was found to be 0.781 µg/mL (≈ 2.04 µM) with Staphylococcus aureus [26] and 0.097 µg/mL (≈ 0.254 µM) with Bacillus subtilis [29]. The “diameter of the inhibition zone (DIZ)” value was determined as 21.7 mm in the assay with Staphylococcus aureus [27] and 26 mm in the assay with Bacillus subtilis [28].

Source of the values: ChEMBL document CHEMBL5241112, “Insights into the recent progress in the medicinal chemistry of pyranopyrimidine analogs” (RSC Med Chem, 2022).
